Values quoted from earlier work, collected in US11311573B2, “Pharmaceutical preparations and methods to manage weight and to modulate the gut microbiota” (XENO BIOSCIENCES INC., priority 2016, dated 2022).

Conditions: rat, based on chronic oral hydrogen peroxide treatment

SMILES: O=C([O-])[O-].O=C([O-])[O-].OO.OO.OO.[Na+].[Na+].[Na+].[Na+] [sodium percarbonate, Sodium percarbonate]
- No-observable-adverse-effect-level (NOAEL): 81 to 115 mg/kg/day
